The results in this text go back to patent US11919901B2 (Syndax Pharmaceuticals, Inc., priority 2021, dated 2024).

One series addresses hERG (Homo sapiens (Human), UniProt Q12809). Kind of series: Patch clamp assay (hERG tail currents, whole-cell). Type of series: cell-based. The note with it: hERG transfected HEK 293 cells; for hERG % Remaining 30 μM: 30 μM compound. For orientation: Patch clamp records ionic current or voltage across a cell membrane.
The next series addresses Menin-MLL (Homo sapiens (Human), UniProt O00255). In words: Determination of binding constants (Ki) to Menin-MLL (HTRF). On the technique in general: In TR-FRET formats the signal depends on donor and acceptor labels being close together.
Where [1] appears, read: HTRF, 0.25 nM H-FL-Menin, 3.2 nM FITC-MLL-4-43, 24 hr incubation, read-out: Menin-MLL Ki HTRF Assay: Ki.

Structures are written as SMILES. pIC50, pKi: −log10 of the molar value. Read-outs that look alike come from different tables or passages of the source.

hERG, sequence (Q12809 whole entry): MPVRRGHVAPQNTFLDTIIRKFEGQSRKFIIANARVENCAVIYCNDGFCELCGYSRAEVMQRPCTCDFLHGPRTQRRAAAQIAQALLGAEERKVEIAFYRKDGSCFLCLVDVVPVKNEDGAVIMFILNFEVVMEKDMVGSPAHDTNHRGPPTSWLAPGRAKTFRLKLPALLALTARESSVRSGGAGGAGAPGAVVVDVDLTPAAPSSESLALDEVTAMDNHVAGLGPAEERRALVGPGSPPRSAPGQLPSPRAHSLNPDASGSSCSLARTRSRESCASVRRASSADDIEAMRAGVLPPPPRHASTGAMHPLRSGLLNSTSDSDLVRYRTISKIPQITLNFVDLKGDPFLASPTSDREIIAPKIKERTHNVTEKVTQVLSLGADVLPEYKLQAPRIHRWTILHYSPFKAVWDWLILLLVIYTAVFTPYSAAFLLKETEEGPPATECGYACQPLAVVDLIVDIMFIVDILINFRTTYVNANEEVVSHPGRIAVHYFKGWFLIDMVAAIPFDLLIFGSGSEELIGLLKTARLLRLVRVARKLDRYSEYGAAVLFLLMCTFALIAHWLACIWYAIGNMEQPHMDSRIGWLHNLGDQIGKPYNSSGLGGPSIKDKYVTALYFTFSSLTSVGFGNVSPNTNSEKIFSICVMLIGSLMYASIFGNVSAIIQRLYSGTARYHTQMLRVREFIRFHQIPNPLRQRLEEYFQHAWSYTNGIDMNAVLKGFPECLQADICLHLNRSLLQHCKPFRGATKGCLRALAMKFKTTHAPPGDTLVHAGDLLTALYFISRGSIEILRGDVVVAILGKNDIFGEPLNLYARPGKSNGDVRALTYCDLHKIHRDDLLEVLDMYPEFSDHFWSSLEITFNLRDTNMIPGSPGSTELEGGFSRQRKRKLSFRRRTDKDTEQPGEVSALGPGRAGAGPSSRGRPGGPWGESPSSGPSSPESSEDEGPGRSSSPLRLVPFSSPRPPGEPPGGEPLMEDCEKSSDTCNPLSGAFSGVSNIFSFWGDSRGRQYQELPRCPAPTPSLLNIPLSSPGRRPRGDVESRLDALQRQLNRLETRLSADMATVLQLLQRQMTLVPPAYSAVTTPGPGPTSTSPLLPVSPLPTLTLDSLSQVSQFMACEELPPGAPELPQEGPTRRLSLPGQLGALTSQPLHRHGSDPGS
Menin-MLL, sequence (O00255 whole entry): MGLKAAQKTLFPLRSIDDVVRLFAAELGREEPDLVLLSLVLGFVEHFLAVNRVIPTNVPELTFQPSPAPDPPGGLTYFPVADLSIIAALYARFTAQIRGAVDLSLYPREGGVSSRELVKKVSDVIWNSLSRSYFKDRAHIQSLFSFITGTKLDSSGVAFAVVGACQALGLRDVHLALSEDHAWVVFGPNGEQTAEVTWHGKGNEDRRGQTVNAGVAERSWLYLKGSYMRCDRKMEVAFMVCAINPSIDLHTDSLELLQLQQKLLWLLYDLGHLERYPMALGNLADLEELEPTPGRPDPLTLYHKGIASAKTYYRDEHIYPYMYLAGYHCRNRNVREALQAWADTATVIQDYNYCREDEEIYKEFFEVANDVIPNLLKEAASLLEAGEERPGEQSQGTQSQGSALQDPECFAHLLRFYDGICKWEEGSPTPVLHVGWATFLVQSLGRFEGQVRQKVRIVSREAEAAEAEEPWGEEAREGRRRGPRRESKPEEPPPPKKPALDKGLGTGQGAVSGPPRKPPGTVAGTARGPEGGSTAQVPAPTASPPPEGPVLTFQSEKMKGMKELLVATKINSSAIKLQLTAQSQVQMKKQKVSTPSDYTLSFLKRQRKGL

In general, pKi refers to the Ki on a negative log10 scale, so that one unit is a factor of ten. For `CO[C@H]1CCN(S(=O)(=O)N[C@@H]2CC[C@@H](CN3CCC4(CC3)CN(c3ncncc3Oc3ccc(F)cc3C(=O)N(C(C)C)C(C)C)C4)OC2)C1` [Compound 210, 5-Fluoro-N,N-diisopropyl-2-((4-(7-(((2S,5R)-5-(((S)-3-methoxypyrrolidine)-1-sulfonamido)tetrahydro-2H-pyran-2-yl)methyl)-2,7-diazaspiro[3.5]nonan-2-yl)pyrimidin-5-yl)oxy)benzamide], on hERG, the “hERG % Remaining 30 μM” value is reported as “+++ (“+++” means ≥66%)”. In addition, the pKi at Menin-MLL (setting [1]) is > 9.00.

As to `CO[C@@H]1CCN(S(=O)(=O)N[C@@H]2CC[C@@H](CN3CCC4(CC3)CN(c3ncncc3Oc3ccc(F)cc3C(=O)N(C(C)C)C(C)C)C4)OC2)C1` [Compound 211, 5-Fluoro-N,N-diisopropyl-2-((4-(7-(((2S,5R)-5-(((R)-3-methoxypyrrolidine)-1-sulfonamido)tetrahydro-2H-pyran-2-yl)methyl)-2,7-diazaspiro[3.5]nonan-2-yl)pyrimidin-5-yl)oxy)benzamide], on hERG, the “hERG % Remaining 30 μM” value is reported as “+++ (“+++” means ≥66%)”. For the same molecule, at Menin-MLL (setting [1]), the pKi was > 9.00.

On to `CC(C)N(CC(F)F)C(=O)c1cc(F)ccc1Oc1cncnc1N1CC2(CCN(C[C@@H]3CC[C@@H](NS(=O)(=O)N(C)CCCO)CO3)CC2)C1` [Compound 214, N-(2,2-difluoroethyl)-5-fluoro-2-((4-(7-(((2S,5R)-5-((N-(3-hydroxypropyl)-N-methylsulfamoyl)amino)tetrahydro-2H-pyran-2-yl)methyl)-2,7-diazaspiro[3.5]nonan-2-yl)pyrimidin-5-yl)oxy)-N-isopropylbenzamide], for which, at hERG, the “hERG % Remaining 30 μM” value is recorded as “+++ (“+++” means ≥66%)”. At Menin-MLL (setting [1]), the negative logarithm of the Ki (pKi) is > 9.00.

As for `CCN(C(=O)c1cc(F)ccc1Oc1cncnc1N1CC2(CCN(C[C@@H]3CC[C@@H](NS(=O)(=O)c4ccc(=O)[nH]c4C)CO3)CC2)C1)C(C)C` [Compound 217, N-Ethyl-5-fluoro-N-isopropyl-2-((4-(7-(((2S,5R)-5-((2-methyl-6-oxo-1,6-dihydropyridine)-3-sulfonamido)tetrahydro-2H-pyran-2-yl)methyl)-2,7-diazaspiro[3.5]nonan-2-yl)pyrimidin-5-yl)oxy)benzamide], the “hERG % Remaining 30 μM” value at hERG is “+++ (“+++” means ≥66%)”. Besides, the pKi at Menin-MLL (setting [1]) was > 9.00.

Turning to `CCN(C(=O)c1cc(F)ccc1Oc1cncnc1N1CC2(CCN(C[C@@H]3CC[C@@H](NS(=O)(=O)c4c[nH]c(=O)c(C)c4)CO3)CC2)C1)C(C)C` [Compound 218, N-Ethyl-5-fluoro-N-isopropyl-2-((4-(7-(((2S,5R)-5-((5-methyl-6-oxo-1,6-dihydropyridine)-3-sulfonamido)tetrahydro-2H-pyran-2-yl)methyl)-2,7-diazaspiro[3.5]nonan-2-yl)pyrimidin-5-yl)oxy)benzamide], the “hERG % Remaining 30 μM” value at hERG is “+ (“+” means <33%)”. Besides, the pKi on Menin-MLL (setting [1]) is > 9.00.

On to `CC(C)N(C(=O)c1cc(F)ccc1Oc1cncnc1N1CC2(CCN(C[C@@H]3CC[C@@H](NS(=O)(=O)N4CC5(CCOC5)C4)CO3)CC2)C1)C(C)C` [Compound 223, 2-((4-(7-(((2S,5R)-5-(6-Oxa-2-azaspiro[3.4]octane-2-sulfonamido)tetrahydro-2H-pyran-2-yl)methyl)-2,7-diazaspiro[3.5]nonan-2-yl)pyrimidin-5-yl)oxy)-5-fluoro-N,N-diisopropylbenzamide], for which the “hERG % Remaining 30 μM” value on hERG was “+++ (“+++” means ≥66%)”. Also, at Menin-MLL (setting [1]), the negative logarithm of the Ki (pKi) is > 9.00.

As to `CC(C)N(C(=O)c1cc(F)ccc1Oc1cncnc1N1CC2(CCN(C[C@@H]3CC[C@@H](NS(=O)(=O)N4CC5COCC5C4)CO3)CC2)C1)C(C)C` (stereo partly drawn) [Compound 224, 5-Fluoro-2-((4-(7-(((2S,5R)-5-((hexahydro-1H-furo[3,4-c]pyrrole)-5-sulfonamido)tetrahydro-2H-pyran-2-yl)methyl)-2,7-diazaspiro[3.5]nonan-2-yl)pyrimidin-5-yl)oxy)-N,N-diisopropylbenzamide], the “hERG % Remaining 30 μM” value on hERG was “+++ (“+++” means ≥66%)”. Further, the negative logarithm of the Ki (pKi) at Menin-MLL (setting [1]) was > 9.00.

On to `CCS(=O)(=NC)N[C@@H]1CC[C@@H](CN2CCC3(CC2)CN(c2ncncc2Oc2ccc(F)cc2C(=O)N(C(C)C)C(C)C)C3)OC1` (stereo partly drawn) [Compound 231, 5-Fluoro-N,N-diisopropyl-2-((4-(7-(((2S,5R)-5-(N′-methylethylsulfonoamidimidamido)tetrahydro-2H-pyran-2-yl)methyl)-2,7-diazaspiro[3.5]nonan-2-yl)pyrimidin-5-yl)oxy)benzamide], for which the “hERG % Remaining 30 μM” value at hERG was “+++ (“+++” means ≥66%)”. Further, on Menin-MLL, the pKi was > 9.00.

As for `CC(C)N(CC(F)F)C(=O)c1cc(F)ccc1Oc1cncnc1N1CC2(CCN(C[C@@H]3CC[C@@H](NS(=O)(=O)NCC(F)F)CO3)CC2)C1` [Compound 235, N-(2,2-Difluoroethyl)-2-((4-(7-(((2S,5R)-5-((N-(2,2-difluoroethyl)sulfamoyl)amino)tetrahydro-2H-pyran-2-yl)methyl)-2,7-diazaspiro[3.5]nonan-2-yl)pyrimidin-5-yl)oxy)-5-fluoro-N-isopropylbenzamide], on hERG, the “hERG % Remaining 30 μM” value is recorded as “+++ (“+++” means ≥66%)”. At Menin-MLL, the negative-log Ki (pKi) is > 9.00.

Take `CC(C)N(CC(F)F)C(=O)c1cc(F)ccc1Oc1cncnc1N1CC2(CCN(C[C@@H]3CC[C@@H](NS(=O)(=O)N(C)CCO)CO3)CC2)C1` [Compound 239, N-(2,2-difluoroethyl)-5-fluoro-2-((4-(7-(((2S,5R)-5-((N-(2-hydroxyethyl)-N-methylsulfamoyl)amino)tetrahydro-2H-pyran-2-yl)methyl)-2,7-diazaspiro[3.5]nonan-2-yl)pyrimidin-5-yl)oxy)-N-isopropylbenzamide]: the “hERG % Remaining 30 μM” value at hERG is “+++ (“+++” means ≥66%)”. The pKi on Menin-MLL (setting [1]) was > 9.00.

For orientation: pIC50 means the IC50 on a negative log10 scale, so that one unit is a factor of ten. Low readings indicate a large IC50, high ones a small IC50. On to `CC(C)N(CC(F)F)C(=O)c1cc(F)ccc1Oc1cncnc1N1CC2(CCN(C[C@@H]3CC[C@@H](NS(N)(=O)=O)CO3)CC2)C1` [Compound 240, N-(2,2-Difluoroethyl)-5-fluoro-N-isopropyl-2-((4-(7-(((2S,5R)-5-(sulfamoylamino)tetrahydro-2H-pyran-2-yl)methyl)-2,7-diazaspiro[3.5]nonan-2-yl)pyrimidin-5-yl)oxy)benzamide], for which, on hERG, the “hERG % Remaining 30 μM” value was “+++ (“+++” means ≥66%)” and the negative logarithm of the IC50 (pIC50) was ≤ 4.30. Moreover, the negative logarithm of the Ki (pKi) on Menin-MLL (setting [1]) was > 9.00.

Turning to `CC(C)N(CC(F)F)C(=O)c1cc(F)ccc1Oc1cncnc1N1CC2(CCN(C[C@@H]3CC[C@@H](NS(=O)(=O)c4nn(C)cc4F)CO3)CC2)C1` [Compound 241, N-(2,2-Difluoroethyl)-5-fluoro-2-((4-(7-(((2S,5R)-5-((4-fluoro-1-methyl-1H-pyrazole)-3-sulfonamido)tetrahydro-2H-pyran-2-yl)methyl)-2,7-diazaspiro[3.5]nonan-2-yl)pyrimidin-5-yl)oxy)-N-isopropylbenzamide], at hERG, the “hERG % Remaining 30 μM” value is “++ (“++” means ≥33% and <66%)”. On Menin-MLL (setting [1]), the pKi is > 9.00.

On to `CC(C)N(C(=O)c1cc(F)ccc1Oc1cncnc1N1CC2(CCN(C[C@@H]3CC[C@@H](NS(=O)(=O)N4CCC4)CO3)CC2)C1)C1COC1` [Compound 248, 2-((4-(7-(((2S,5R)-5-(Azetidine-1-sulfonamido)tetrahydro-2H-pyran-2-yl)methyl)-2,7-diazaspiro[3.5]nonan-2-yl)pyrimidin-5-yl)oxy)-5-fluoro-N-isopropyl-N-(oxetan-3-yl)benzamide], for which the “hERG % Remaining 30 μM” value at hERG is “+++ (“+++” means ≥66%)”. Also, the pKi at Menin-MLL (setting [1]) was > 9.00.
